In brackets after ≈: the same amount, converted by molar mass.
Assays:
[1] = Inhibition of trypsin like activity of partially purified rat liver proteasome by spectrofluorimetry; type: subcellular
[2] = Inhibition of caspase like activity of partially purified rat liver proteasome by spectrofluorimetry; type: subcellular
[3] = Inhibition of chymotrypsin-like activity of purified 20S proteasome from human erythrocyte
[4] = Inhibition of chymotrypsin like activity of partially purified rat liver proteasome by spectrofluorimetry; type: subcellular
[5] = Inhibition of caspase-like activity of 20S proteasome in human erythrocyte by spectrofluorimetry
HeLa = test: Cytotoxicity against human HeLa cells after 3 days by MTT assay; type: functional, cell-based; conditions: 72 h

Structure (SMILES) | IC50 [1] [µg/mL] | IC50 [2] [µg/mL] | IC50 [3] [µg/mL] | IC50 [4] [µg/mL] | IC50 [5] [µg/mL] | IC50 (HeLa) [µg/mL]
COc1cc2ccnc3c2c(c1OC)NC=C3 [AAPTAMINE] | 18 (≈ 78.9 µM) | 2.7 (≈ 11.8 µM) | 4.3 (≈ 18.8 µM) | 1.6 (≈ 7.01 µM) | 4.6 (≈ 20.2 µM) | 15 (≈ 65.7 µM)
COc1cc2ccnc3c2c(c1O)N(C)C=C3 [ISOAAPTAMINE] | 10 (≈ 43.8 µM) | 2.4 (≈ 10.5 µM) | 1.7 (≈ 7.45 µM) | 2.1 (≈ 9.2 µM) | 1.7 (≈ 7.45 µM) | 3.1 (≈ 13.6 µM)

— ChEMBL document CHEMBL1155490, “Aaptamine, an alkaloid from the sponge Aaptos suberitoides, functions as a proteasome inhibitor” (Bioorg Med Chem Lett, 2010)
